{"source": "patent US20210024634A1", "about": "“METHODS FOR PREDICTING AND ENHANCING THERAPEUTIC BENEFIT FROM CHECKPOINT INHIBITORS IN CANCER” (The Brigham and Women's Hospital, Inc., priority 2018, published 2021)", "key": {"CD200": {"tested_on": "CD200", "assay": "qPCR of CD200 RNA levels in melanoma cell lines after MEK-inhibitor treatment", "type": "cell-based", "settings": "panel of melanoma cell lines, 24 h, 100 nM", "description": "FIGS. 11A-C. 11A. CD200 decrease in melanomas after MEK-inhibitor treatment, but not in carcinomas (GSE10087). 11B. […] 11C. The pREP4-CD200 reporter recapitulates changes in response to MEK-inhibitor (24 h; 100 nM). Significance as * p<0.05: ** p<0.01, based on 2-sample, 2-tailed t-test. Because CD200 has been identified as regulated by MAPK-signaling in melanoma cells, a pathway which is frequently deregulated by BRAF(V600E) function, we wanted to assure that this mode of regulation holds true. To this end, we analyzed publicly available data (GSE10087) on MEK-inhibitor treatment across a cohort of carcinoma and melanoma cell lines (FIG. 11A), measured CD200 levels by qPCR following MEK inhibition in a cohort of our melanoma cell lines (FIG. 11B), and initial reporter assays (FIG. 11C). […] Using qPCR, we measured the effect of MEK-inhibitor treatment on CD200 RNA levels across our panel of melanoma cell lines (see FIG. 11B), using 24 h treatment with PD0325901 [100 nM]."}, "[1]": {"tested_on": "CD200 promoter (pREP4-CD200 reporter)", "assay": "pREP4-CD200 reporter assay", "type": "cell-based, human", "settings": "24 h; 100 nM", "description": "FIGS. 11A-C. 11A. CD200 decrease in melanomas after MEK-inhibitor treatment, but not in carcinomas (GSE10087). 11B. […] 11C. The pREP4-CD200 reporter recapitulates changes in response to MEK-inhibitor (24 h; 100 nM). Significance as * p<0.05: ** p<0.01, based on 2-sample, 2-tailed t-test. The region next to the CD200 transcription start drives basal activity. We have therefore amplified an 850 bp fragment upstream of the CD200 start codon, and cloned it into an EBNA-carrying vector (pREP4-LUC/hygromycin [50]) that remains episomal and replicates within human cells and allows nucleosome deposition to form chromatin. Because CD200 has been identified as regulated by MAPK-signaling in melanoma cells, a pathway which is frequently deregulated by BRAF(V600E) function, we wanted to assure that this mode of regulation holds true. To this end, we analyzed publicly available data (GSE10087) on MEK-inhibitor treatment across a cohort of carcinoma and melanoma cell lines (FIG. 11A), measured CD200 levels by qPCR following MEK inhibition in a cohort of our melanoma cell lines (FIG. 11B), and initial reporter assays (FIG. 11C)."}}, "note": "“Also recorded” adds a separate entry of the source."}
{"smiles": "O=C(NOC[C@H](O)CO)c1ccc(F)c(F)c1Nc1ccc(I)cc1F", "note": "[PD0325901]", "values": [{"measurement": "CD200 RNA levels", "setting": "CD200", "result": "consistently are reduced; also recorded: consistent downregulation of CD200 levels; also recorded: Consistent CD200 decrease"}, {"measurement": "pREP4-CD200 reporter response", "setting": "[1]", "result": "parallels these responses"}]}
